Measurements: article PMC8837819, “Syrbactin-class dual constitutive- and immuno-proteasome inhibitor TIR-199 impedes myeloma-mediated bone degeneration in vivo” (Bioscience Reports, 2022)
Where two headings read alike, the source gives them in different places.

Tests used:
[1] = system: MM.1S myeloma-mediated bone degeneration in NSG mice; test: MM.1S/NSG systemic myeloma xenograft, μCT of femurs; assay type: in vivo, mouse; details: 5 mg/kg i.p. daily for 4 days
[2] = system: panel of 50 protein kinases; test: Kinase specificity profiling, panel of 50 protein kinases (33P-ATP); assay type: biochemical; details: 1 μM TIR-199 (20-fold PSMB5 IC50); triplicate reactions
Procedure: TIR-199 specificity profiling assays were carried out at The International Centre for Protein Kinase Profiling (http://www.kinase-screen.mrc.ac.uk/). TIR-199 kinase specificity was determined against a panel of 50 protein kinases as described previously. The assay mixes and ^33P-γATP were added by Multidrop 384 (Thermo). Results are presented as a percentage of kinase activity in DMSO control reactions. Protein kinases were assayed in vitro with 1 μM final concentration of TIR-199 and the results are presented as an average of triplicate reactions ± SD or in the form of comparative histograms.
Kinase profiling of TIR-199 at 1 μM was carried out against the panel of 50 kinases at the
International Centre for Protein Kinase Profiling (http://www.kinase-screen.mrc.ac.uk/).
(1 picture or pasted object on this page, not shown here)

[3] = molecular target: PSMB8-FLAG (immunoproteasome) (Homo sapiens, UniProt P20618+P28062); test: Immunoproteasome activity assay on immunoprecipitated PSMB8-FLAG (Ac-ANW-AMC); details: 100 nM for 30 min; Ac-ANW-AMC; n=3
Procedure: (§1) Immunoproteasome activity assays were carried out as stated previously [32]. Briefly, HEK293 cells transiently overexpressing FLAG-tagged PSMB9 or PSMB8 were treated with IFNγ (100 ng/ml; 48 h) to induce expression of immunoproteasome. […] Immunoproteasomes were affinity purified using FLAG agarose from 2 mg of cell lysate. Peptidase activities of purified immunoproteasomes were assayed using 100 μM fluorogenic peptide substrates Ac-ANW-AMC for PSMB8 and Ac-PAL-AMC for PSMB9 (Boston Biochem) for 30 min.
(§2) (B) PSMB8 or PSMB9 was immunoprecipitated for 48 h in 100 ng/ml IFNγ-stimulated HEK293 cells transiently overexpressing either PSMB8-FLAG or PSMB9-FLAG. […] Fluorescence signal upon release of AMC was measured in a Tecan plate reader. […] Results are means ± S.D. for n=3 replicates.

[4] = molecular target: PSMB8-FLAG (immunoproteasome) (Homo sapiens, UniProt P28062); test: as above
Procedure: as §1, §2

[5] = system: proteasome in primary CD138+ myeloma cells; test: Chymotryptic-like proteasome activity in primary CD138+ myeloma cells of patients; assay type: cell-based, human; details: CD138+ cells of two refractory patients; 500 nM for 0.5 h; Suc-LLVY-AMC; n=3
Text: CD138^+ myeloma cells were purified from the bone marrow aspirates which were obtained from HIPAA compliant de-identified consenting patients in accordance with Institutional Review Board protocol: 181027 approved on 9 October 2019 at UCSD. The bone marrow aspirates were kindly provided by Dr. Caitlin Costello, Moores Cancer Center, UCSD. CD138^+ primary myeloma cells were purified from fresh bone marrow aspirates of multiple myeloma patients using EasySep™ Human Whole Blood and Bone Marrow CD138 Positive Selection Kit II (StemCell Technologies) following manufacturer’s instructions. Viable cells were collected for further analyses.
Figure 1 TIR-199 is a syrbactin-based constitutive proteasome inhibitor (A) Chemical structure of syrbactin derivative TIR-199. (B) Wildtype (WT) PSMB5-FLAG was immunoprecipitated from HEK293 cells stably expressing PSMB5-FLAG. […] (C) Proteasome activity in lysates from MM.1S and primary CD138^+ myeloma cells purified from two patients treated with DMSO or 0.5 μM TIR-199 for 0.5 h was measured with Suc-LLVY-AMC. *P<0.05; **P<0.01; ***P<0.001 (compared with control treated, two-tailed paired Student’s t test, mean ± SD from n=3 replicates). Also refer to Supplementary Figure S1. (D) HEK-293T cells were treated in the absence (DMSO) or presence of 0.5 μM of TIR-199 for 6 h. Cell lysates were subjected to immunoblotting with the indicated antibodies. […]

[6] = system: endogenous proteasome in MM.1S cells; test: Chymotryptic-like proteasome activity in lysates of treated MM.1S cells; assay type: cell-based, human; details: 0.5 μM TIR-199 for 0.5 h vs DMSO, Suc-LLVY-AMC, n=3
HEK293T cells = test: Immunoblot of proteasome substrates and ubiquitylated proteins in HEK293T cells; assay type: cell-based, human
Procedure: Data were normalized to corresponding GAPDH levels. […] (D) HEK-293T cells were treated in the absence (DMSO) or presence of 0.5 μM of TIR-199 for 6 h. Cell lysates were subjected to immunoblotting with the indicated antibodies. Similar results were obtained in three independent replicates. (E) HEK-293T cells were treated in the absence (DMSO) or presence of either 0.1 μM of bortezomib (BTZ) or 0.2 μM of TIR-199 for 4 h. Cell lysates were subjected to immunoblotting with the indicated antibodies. Similar results were obtained in two independent replicates.

A549 cells = test: Cytotoxicity assay (MTS), A549; assay type: cell-based; details: 48 h
Procedure: MTS absorbance was measured in a Tecan plate reader.

[7] = molecular target: T1, PSMB5-FLAG (chymotryptic-like activity, constitutive 26S proteasome) (Homo sapiens, UniProt P20618+P28074); test: Proteasome activity assay on immunoprecipitated WT PSMB5-FLAG (Suc-LLVY-AMC); assay type: biochemical; details: for proteasomal activity of WT PSMB5: Suc-LLVY-AMC, relative to DMSO, n=3
T1 construct: made in house; host or cells: HEK293 cells stably expressing PSMB5-FLAG; FLAG immunoprecipitate
Procedure: (B) Wildtype (WT) PSMB5-FLAG was immunoprecipitated from HEK293 cells stably expressing PSMB5-FLAG. […] Also refer to Supplementary Figure S1. (D) HEK-293T cells were treated in the absence (DMSO) or presence of 0.5 μM of TIR-199 for 6 h. Cell lysates were subjected to immunoblotting with the indicated antibodies. […] (E) HEK-293T cells were treated in the absence (DMSO) or presence of either 0.1 μM of bortezomib (BTZ) or 0.2 μM of TIR-199 for 4 h. Cell lysates were subjected to immunoblotting with the indicated antibodies.

[8] = system: PSMB5 (AA/TV) bortezomib-resistant mutant; details: Suc-LLVY-AMC, relative to DMSO, n=3
[9] = system: PSMB9-FLAG (immunoproteasome); test: Immunoproteasome activity assay on immunoprecipitated PSMB9-FLAG (Ac-PAL-AMC); assay type: biochemical, human; details: n=3; for PSMB9 activity at single concentration: 100 nM for 30 min, Ac-PAL-AMC
Text: Also refer to Supplementary Figure S2.

[10] = vs vehicle, distal and proximal femur combined, n=6 femurs

SMILES | myeloma-mediated bone degeneration ([1]; femurs 7 days after dosing) | % bone volume over total volume (% BV/TV), femur μCT [1, 10] | trabecular number (Tb.N), femur μCT [1, 10] | trabecular separation (Tb.Sp), femur μCT [1, 10] | inhibition of 50 kinases in vitro [2] | PSMB8 activity at single concentration [3] | IC50 [4] | chymotryptic-like proteasome activity compared with DMSO [5] | chymotryptic-like endogenous proteasome activity in cell lysates [6] | accumulation of ubiquitylated proteins (immunoblot) (HEK293T cells; 200 nM TIR-199 for 4 h) | proteasome substrates p62, IKBα and p21 protein levels (immunoblot) (HEK293T cells; 250 nM TIR-199 for 6 h (legend: 0.5 μM)) | sensitivity to TIR-199 within lung cancer panel (A549 cells) | IC50 [7] | proteasomal activity of WT PSMB5 ([7]; 100 nM TIR-199) | proteasomal activity of AA/TV PSMB5 ([8]; 100 nM TIR-199) | PSMB9 activity at single concentration [9] | caspase-like activity of PSMB9 ([9]; up to 250 nM TIR-199, 100 μM Ac-PAL-AMC) | accumulation of ubiquitylated proteins (immunoblot) (HEK293T cells; 100 nM bortezomib for 4 h) | proteasomal activity of WT PSMB5 ([7]; 10 nM bortezomib) | proteasomal activity of AA/TV PSMB5 ([8]; 10 nM bortezomib)
CCCCCCCCCCCCNC(=O)N[C@H](C(=O)N[C@H]1/C=C/CCNC(=O)/C=C/[C@H](C)NC1=O)C(C)C [TIR-199] | slowed down the myeloma-mediated bone degeneration process | not significant | higher trabecular number | significantly lower trabecular separation | does not inhibit | inhibited PSMB8 potently | ~100 nM | decreased significantly | inhibition of chymotryptic-like endogenous proteasome activity | accumulation of ubiquitylated proteins | protein levels increased | relatively more resistant | 50 nM | equally sensitive | equally sensitive | did not inhibit | largely more resistant |  |  | 
COc1ccc(C[C@H](NC(=O)[C@H](C)NC(=O)CN2CCOCC2)C(=O)N[C@@H](Cc2ccccc2)C(=O)C2(C)CO2)cc1 (stereo in doubt) [ONX-0914, reference compound] |  |  |  |  |  |  |  |  |  |  |  |  |  |  |  | did not inhibit |  |  |  | 
CC(C)C[C@H](NC(=O)[C@H](Cc1ccccc1)NC(=O)c1cnccn1)B(O)O [bortezomib, reference compound] |  |  |  |  |  |  |  |  |  |  |  |  |  |  |  |  |  | accumulation of ubiquitylated proteins | dramatic reduction in proteasomal activity | significant resistance
